In US5637582A, “Peripheral circulation improving agent” (priority 1992, dated 1997):
Where a name gives a salt, the structure may show the parent alone.

Columns and labels:
femoral artery [1] = experiment: Maximum increase in femoral arterial blood flow in anesthetized dogs, cumulative i.v. dosing (Experimental Example 3); assay type: in vivo, dog; conditions: maximum during 60 min
Procedure: (§1) Adult dogs (one group consisting of 5 dogs) were intravenously given the test compound under anesthesia and artificial respiration successively at intervals of 60 minutes so that the dose can be 10, 30, 100, 300 and 1000 μg/kg body weight, and the blood flow of femoral artery was measured with a time course. […] An increase in the femoral arterial blood flow was calculated by subtracting the blood flow before the administration of the first dose of test compound as the standard value (the base line) from that of maximum during an interval of 60 minutes after each administration.

femoral artery [2] = experiment: Increase in femoral arterial blood flow in anesthetized dogs, cumulative i.v. dosing (Experimental Example 1); assay type: in vivo, dog; conditions: 60 min after administration
Procedure: as §1, with “a dog)” for “5 dogs)”, “100 and” for “100,”, “300” for “300 and 1000”, “that” for “that of maximum during an interval of”

hind leg edema = experiment: Hind leg frostbite model: model of Raynaud's disease (Experimental Example 7); assay type: in vivo, male SD rat; conditions: for % Inhibition of edema / Edema: 30 mg/kg, orally twice a day for 6 days; for edema inhibition activity: rat hind leg frostbite model, in words
Procedure: (Hind leg frostbite model: Model of Raynaud's disease)
Left hind leg of male SD rat (one group: 3 to 5 rats) was dipped in dry ice-ethanol for 2 seconds, and after 30 minutes, 30 mg/kg of a test compound dissolved in pure water was administered to the rat and then orally administered twice a day for 6 days continuously. At the final day of the experiment, volumes of both hind legs (below ankle joint) of the rat were measured by a water substitution method and an edema ratio was calculated from the following equation. Also, an inhibition ratio of the test compound administered group was obtained by comparing the edema ratio of the group in which the test compound was not administered. [formula]
The present model is disclosed, for example, in Hayashi et al, "Pharmacological Studies on Niceritrol (10), The Effects on Experimental Models of Peripherally Circulatory Insufficiency", Applied Pharmacology, 24 (6): 859-864 (1982), noting particularly the section "2. Effect on an experimental frostbite model" on page 860.

arterial blood pressure = experiment: Change of arterial blood pressure in anesthetized dogs (Experimental Example 4); conditions: 100 μg/kg i.v.
Procedure: (§2) Each test compound was intravenously administered to adult dogs (one group consisting of 2 or 4 dogs) under anesthesia and artificial respiration at a dose of 100 μg/kg body weight. Femoral arterial blood flow, vertebral arterial blood flow and arterial blood pressure were measured 1, 3, 5, 10, 20 and 30 minutes after the administration. The femoral arterial blood flow and vertebral arterial blood flow were measured with an electromagnetic blood flowmeter (manufactured by Nihon Koden, MFV-2100, trade name) through a flow probe attached to the femoral artery or vertebral artery. The arterial blood pressure was measured with a pressure transducer (manufactured by Millar, MICRO-TIP, Model SPC-350) through a catheter attached to the brachial artery.
(§3) Changes of the femoral arterial blood flow, vertebral arterial blood flow and arterial blood pressure were estimated by comparing the values measured before and after the administration of the test compound.

vertebral artery = experiment: Change of vertebral arterial blood flow in anesthetized dogs (Experimental Example 4); conditions: 100 μg/kg i.v.
Procedure: as §2, §3

femoral artery [3] = experiment: Change of femoral arterial blood flow in anesthetized dogs (Experimental Example 4); assay type: in vivo, dog; conditions: 100 μg/kg i.v.; for AUC60 of the femoral arterial blood flow: 60 minutes after administration; for Increase in femoral arterial blood flow: 10 minutes after the administration
Procedure: as §2, §3

[4] = G and H: one minute after, in words

| SMILES | Increase in femoral arterial blood flow (femoral artery [1]; 30 μg/kg i.v.) | Increase in femoral arterial blood flow (femoral artery [1]; 100 μg/kg i.v.) | Increase in femoral arterial blood flow (femoral artery [1]; 300 μg/kg i.v.) | Increase in femoral arterial blood flow (femoral artery [1]; 1000 μg/kg i.v.) | Increase in femoral arterial blood flow (femoral artery [2]; 10 μg/kg i.v.) | Increase in femoral arterial blood flow (femoral artery [2]; 30 μg/kg i.v.) | Increase in femoral arterial blood flow (femoral artery [2]; 100 μg/kg i.v.) | Increase in femoral arterial blood flow (femoral artery [2]; 300 μg/kg i.v.) | Arterial Blood Pressure change (side effects) (arterial blood pressure; 1 min) | Arterial Blood Pressure change (side effects) (arterial blood pressure; 3 min) | Arterial Blood Pressure change (side effects) (arterial blood pressure; 5 min) | Arterial Blood Pressure change (side effects) (arterial blood pressure; 10 min) | Arterial Blood Pressure change (side effects) (arterial blood pressure; 20 min) | Arterial Blood Pressure change (side effects) (arterial blood pressure; 30 min) | Vertebral Arterial Blood Flow change (side effects) (vertebral artery; 1 min) | Vertebral Arterial Blood Flow change (side effects) (vertebral artery; 3 min) | Vertebral Arterial Blood Flow change (side effects) (vertebral artery; 5 min) | Vertebral Arterial Blood Flow change (side effects) (vertebral artery; 10 min) | Vertebral Arterial Blood Flow change (side effects) (vertebral artery; 20 min) | Vertebral Arterial Blood Flow change (side effects) (vertebral artery; 30 min) | further results |
| --- | --- | --- | --- | --- | --- | --- | --- | --- | --- | --- | --- | --- | --- | --- | --- | --- | --- | --- | --- | --- | --- |
| Cc1ccc([C@H]2Sc3cc(C)ccc3N(CCN(C)C)C(=O)[C@H]2O)cc1 [B] | 16.4 mL/min | 41.4 mL/min | 70.2 mL/min | 79.2 mL/min | 22 mL/min | 28 mL/min | 48 mL/min | 74 mL/min |  |  |  |  |  |  |  |  |  |  |  |  | Increase in femoral arterial blood flow (femoral artery [1]; 10 μg/kg i.v.): 10.4 mL/min |
| CNCCN1C(=O)[C@@H](OC(C)=O)[C@@H](c2ccc(C)cc2)Sc2cc(C)ccc21 [C] | 6.8 mL/min | 25.6 mL/min | 44.6 mL/min | 49.0 mL/min | 6 mL/min | 19 mL/min | 50 mL/min | 65 mL/min |  |  |  |  |  |  |  |  |  |  |  |  |  |
| CC(=O)O[C@@H]1C(=O)N(CCN(C)C)c2ccc(CO)cc2S[C@@H]1c1ccc(C)cc1 [Compound E, (-)-cis-2-(4-methylphenyl)-3-acetoxy-5-[2-(dimethylamino)ethyl]-8-hydroxymethyl-2,3-dihydro-1,5-benzothiazepin-4(5H)-one oxalate] | 15.6 mL/min | 55.6 mL/min | 69.2 mL/min | 68.6 mL/min |  | 15 mL/min | 37 mL/min | 36 mL/min |  |  |  |  |  |  |  |  |  |  |  |  |  |
| Clc1ccccc1CN1CCc2sccc2C1 [Compound K, ticlopidine] |  |  |  |  |  |  |  |  |  |  |  |  |  |  |  |  |  |  |  |  | % Inhibition of edema (hind leg edema): -9%; Edema (hind leg edema): 48 ± 2%; edema inhibition activity (hind leg edema): did not show any edema inhibition activity |
| CC(=O)Oc1ccccc1C(=O)O [Compound L, acetyl salicylic acid] |  |  |  |  |  |  |  |  |  |  |  |  |  |  |  |  |  |  |  |  | % Inhibition of edema (hind leg edema): -25%; Edema (hind leg edema): 55 ± 8%; edema inhibition activity (hind leg edema): did not show any edema inhibition activity |
| CNCCN1C(=O)[C@@H](O)[C@@H](c2ccc(C)cc2)Sc2cc(C)ccc21 [D] |  |  |  |  |  |  | 11 mL/min | 35 mL/min |  |  |  |  |  |  |  |  |  |  |  |  |  |
| COc1ccc([C@H]2Sc3ccccc3N(CCN(C)C)C(=O)[C@H]2OC(C)=O)cc1 [F] | 21.0 mL/min | 27.3 mL/min | 37.0 mL/min |  | 11 mL/min | 21 mL/min | 27 mL/min | 37 mL/min | -1.5 ΔmmHg | -0.5 ΔmmHg | 1.0 ΔmmHg | 1.5 ΔmmHg | 1.5 ΔmmHg | 2.5 ΔmmHg | -0.5 Δ ml/min | -1.0 Δ ml/min | -1.0 Δ ml/min | 0.0 Δ ml/min | 0.0 Δ ml/min | 0.5 Δ ml/min | Increase in femoral arterial blood flow (femoral artery [1]; 10 μg/kg i.v.): 10.7 mL/min; Femoral Arterial Blood Flow change (femoral artery [3]; 3 min): 36.0 Δ ml/min; Femoral Arterial Blood Flow change (femoral artery [3]; 5 min): 48.0 Δ ml/min; Femoral Arterial Blood Flow change (femoral artery [3]; 10 min): 63.5 Δ ml/min; Femoral Arterial Blood Flow change (femoral artery [3]; 20 min): 64.5 Δ ml/min; Femoral Arterial Blood Flow change (femoral artery [3]; 30 min): 54.5 Δ ml/min; AUC60 of the femoral arterial blood flow (femoral artery [3]): 2977.0 mL; femoral arterial blood flow increasing activity (femoral artery [3]; even after 30 minutes, in words): excellent femoral arterial blood flow increasing activity |
| CC(=O)O[C@H]1C(=O)N(CCN(C)C)c2ccc(C)cc2S[C@H]1c1ccc(C)cc1 [G, reference compound] |  |  |  |  |  |  |  |  | -11.0 ΔmmHg | -2.5 ΔmmHg | 1.5 ΔmmHg | 1.0 ΔmmHg | 1.0 ΔmmHg | 1.5 ΔmmHg | 26.5 Δ ml/min | 18.0 Δ ml/min | 11.5 Δ ml/min | 7.0 Δ ml/min | 3.5 Δ ml/min | 2.5 Δ ml/min | effect on arterial blood pressure (arterial blood pressure; [4]): remarkable changes; effect on vertebral arterial blood flow (vertebral artery; [4]): remarkable changes; Femoral Arterial Blood Flow change (femoral artery [3]; 1 min): 30.0 Δ ml/min; Femoral Arterial Blood Flow change (femoral artery [3]; 3 min): 24.0 Δ ml/min; Femoral Arterial Blood Flow change (femoral artery [3]; 5 min): 16.0 Δ ml/min; Femoral Arterial Blood Flow change (femoral artery [3]; 10 min): 9.5 Δ ml/min; Increase in femoral arterial blood flow (femoral artery [3]; in words): substantially disappeared; Femoral Arterial Blood Flow change (femoral artery [3]; 20 min): 7.5 Δ ml/min; Femoral Arterial Blood Flow change (femoral artery [3]; 30 min): 5.0 Δ ml/min; AUC60 of the femoral arterial blood flow (femoral artery [3]): 475.3 mL |
| COc1ccc([C@@H]2Sc3ccccc3N(CCN(C)C)C(=O)[C@@H]2OC(C)=O)cc1 [H, reference compound] |  |  |  |  |  |  |  |  | -11.5 ΔmmHg | -4.5 ΔmmHg | -2.0 ΔmmHg | -1.0 ΔmmHg | 0.0 ΔmmHg | 1.0 ΔmmHg | 25.5 Δ ml/min | 18.0 Δ ml/min | 13.5 Δ ml/min | 7.5 Δ ml/min | 4.5 Δ ml/min | 2.0 Δ ml/min | Femoral Arterial Blood Flow change (femoral artery [3]; 1 min): 38.5 Δ ml/min; Femoral Arterial Blood Flow change (femoral artery [3]; 3 min): 34.5 Δ ml/min; Femoral Arterial Blood Flow change (femoral artery [3]; 5 min): 22.5 Δ ml/min; Femoral Arterial Blood Flow change (femoral artery [3]; 10 min): 8.0 Δ ml/min; Increase in femoral arterial blood flow (femoral artery [3]; in words): substantially disappeared; Femoral Arterial Blood Flow change (femoral artery [3]; 20 min): 1.0 Δ ml/min; Femoral Arterial Blood Flow change (femoral artery [3]; 30 min): -1.5 Δ ml/min; AUC60 of the femoral arterial blood flow (femoral artery [3]): 300.5 mL |
